Reference: patent publication US20230372253A1, “NOVEL LIPID-BASED SMALL MOLECULE INTEGRIN RECEPTOR-LIGAND AGONIST ADJUVANTS CARRIER COMPOSITIONS, INTEGRIN AGONIST ADJUVANT PHARMACEUTICAL COMPOSITIONS THEREFROM, AND METHODS FOR MAKING AND USING SAME” (7 Hills Pharma LLC, priority 2022, published 2023)
Like-named read-outs stand apart in the source and are kept apart here.

Columns and labels:
[1] = target: CYP2C19 (Homo sapiens, UniProt P33261); experiment: Cytochrome P450 Metabolism; assay type: in vitro ADME
[2] = Human SAD PK; assay type: in vivo; settings: plasma, oral; for AUC(0-t): human; for AUC(0-t) / Cmax / half-life: mean ± SD; for Cmax / half-life / Tmax: n = 6; for Tmax: median
Experimental: Preferred lipid-based formulation based on U28 provided adequate exposure in human. The optimal PK exposure to engage integrins and improve adjuvant activity is systemic plasma exposure of AUC0-t between about 50 ng/mL/hr and about 100 ng/mL/hr.

[3] = target: CYP3A4 (Homo sapiens, UniProt P08684); experiment: Cytochrome P450 Metabolism; assay type: in vitro ADME
[4] = Solubility of 7HP349; assay type: physicochemical
[5] = LogP; assay type: physicochemical
Excerpt: The term “Log P” means the ratio of the concentrations of a substance in two heterogenous phases in equilibrium with each other. Typically, the organic solvent in n-octanol, but n-hexane; toluene; chlorobenzene; dichloromethane; methyl tert-butyl ether; isopropyl acetate; benzyl alcohol; cyclohexanol; or n-butanol may be used as well.

CYP2C19, sequence (P33261 whole entry): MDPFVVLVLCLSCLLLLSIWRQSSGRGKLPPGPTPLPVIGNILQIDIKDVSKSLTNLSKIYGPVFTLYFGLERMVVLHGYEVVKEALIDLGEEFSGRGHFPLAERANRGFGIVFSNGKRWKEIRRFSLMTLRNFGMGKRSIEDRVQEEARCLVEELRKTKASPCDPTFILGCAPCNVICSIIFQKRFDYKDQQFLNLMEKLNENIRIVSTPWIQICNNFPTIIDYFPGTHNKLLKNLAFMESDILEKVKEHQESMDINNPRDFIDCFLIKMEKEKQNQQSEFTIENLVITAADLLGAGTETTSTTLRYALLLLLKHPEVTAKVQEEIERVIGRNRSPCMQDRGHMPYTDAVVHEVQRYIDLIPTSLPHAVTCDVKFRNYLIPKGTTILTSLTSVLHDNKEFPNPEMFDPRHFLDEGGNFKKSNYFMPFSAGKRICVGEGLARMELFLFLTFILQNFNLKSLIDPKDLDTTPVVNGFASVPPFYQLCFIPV
CYP3A4, sequence (P08684 whole entry): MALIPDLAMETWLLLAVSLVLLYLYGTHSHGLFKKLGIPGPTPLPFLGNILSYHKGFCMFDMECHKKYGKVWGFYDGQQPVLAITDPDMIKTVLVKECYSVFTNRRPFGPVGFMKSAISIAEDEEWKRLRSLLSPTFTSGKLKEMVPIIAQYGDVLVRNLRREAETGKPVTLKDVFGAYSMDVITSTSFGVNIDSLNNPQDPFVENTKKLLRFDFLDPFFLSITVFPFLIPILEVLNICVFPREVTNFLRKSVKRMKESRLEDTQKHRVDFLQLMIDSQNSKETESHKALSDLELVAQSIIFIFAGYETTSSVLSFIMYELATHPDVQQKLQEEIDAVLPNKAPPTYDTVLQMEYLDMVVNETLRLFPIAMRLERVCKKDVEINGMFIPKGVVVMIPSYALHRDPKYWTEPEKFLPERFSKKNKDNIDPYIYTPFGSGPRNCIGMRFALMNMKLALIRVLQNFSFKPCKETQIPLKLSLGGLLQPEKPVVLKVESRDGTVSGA

SMILES: O=C(OCCOCCOCCOC(=O)N(Cc1cccs1)Cc1cccs1)N(Cc1cccs1)Cc1cccs1 [Form 7HP349, 3-oxo-1-(2-thienyl)-2-(2-thienylmethyl)-4,7,10-trioxa-2-azadodecan-12-yl bis(2-thienylmethyl)carbamate]
- Cytochrome P450 Metabolism [1]: Substrate for CYP3A4 and CYP2C19
- AUC(0-t) ([2]; 50 mg, cohort 1, 50 mg, n = 6, read-out: AUC0-10 h): 12.5 ng·h/mL
- AUC(0-t) ([2]; 50 mg, cohort 1, 50 mg, n = 6, read-out: AUClast): 31.8 ± 21.5 ng·h/mL
- AUC(0-t) ([2]; 100 mg, cohort 2, 100 mg, n = 6, read-out: AUC0-10 h): 115 ± 57.5 ng·h/mL
- AUC(0-t) ([2]; 100 mg, cohort 2, 100 mg, n = 6, read-out: AUClast): 165 ng·h/mL
- AUC(0-t) ([2]; 200 mg, cohort 3, 200 mg, n = 6, read-out: AUC0-10 h): 571 ± 195 ng·h/mL
- AUC(0-t) ([2]; 200 mg, cohort 3, 200 mg, n = 6, read-out: AUClast): 755 ± 241 ng·h/mL
- AUC(0-t) ([2]; 300 mg, cohort 4, 300 mg, n = 6, read-out: AUC0-10 h): 938 ± 282 ng·h/mL
- AUC(0-t) ([2]; 300 mg, cohort 4, 300 mg, n = 6, read-out: AUClast): 1350 ± 316 ng·h/mL
- Cmax ([2]; cohort 1, 50 mg): 10.2 ± 8.17 ng/mL
- half-life ([2]; cohort 1, 50 mg): 8.9 h
- Tmax ([2]; cohort 1, 50 mg): 2.5 h
- Cmax ([2]; cohort 2, 100 mg): 36.1 ± 16.4 ng/mL
- half-life ([2]; cohort 2, 100 mg): 20.6 ± 15 h
- Tmax ([2]; cohort 2, 100 mg): 2 h
- Cmax ([2]; cohort 3, 200 mg): 166 ± 61.8 ng/mL
- half-life ([2]; cohort 3, 200 mg): 34.6 ± 20.7 h
- Tmax ([2]; cohort 3, 200 mg): 2 h
- Cmax ([2]; cohort 4, 300 mg): 321 ng/mL
- half-life ([2]; cohort 4, 300 mg): 29.7 ± 15.4 h
- Tmax ([2]; cohort 4, 300 mg): 2 h
- Cytochrome P450 Metabolism [3]: Substrate for CYP3A4 and CYP2C19
- Solubility ([4]; aqueous buffers and simulated gastrointestinal fluids, aqueous buffer, hydrochloric acid-potassium chloride buffer (pH 2), citrate buffer (pH 4), sodium phosphate buffer (pH 7.4), SGF, FaSSIF and FeSSIF, read-out: Solubility): < 0.01 µM
- Solubility ([4]; common organic solvents such as methanol, ethanol, ethyl acetate, acetone, DMSO, DMF, DCM, etc.): Highly soluble in common organic solvents such
- Solubility ([4]; in water): Insoluble in water
- Solubility ([4]; non-polar organic solvents such as hexane, heptane, etc.): Practically insoluble in non-polar organic solvents
- Solubility ([4]; oil or lipid, vegetable oils such as corn, soybean, canola oils typically containing >C16 fatty acids, read-out: Solubility): ≤ 50 mg/mL
- logP [5]: 6.22

SMILES: O=C(OCCOCCOC(=O)N(Cc1cccs1)Cc1cccs1)N(Cc1cccs1)Cc1cccs1 [Form 7HP577, 3-oxo-1-(2-thienyl)-2-(2-thienylmethyl)-4,7-dioxa-2-azanonan-9-yl bis(2-thienylmethyl)carbamate]
- logP [5]: 6.58
